For test [1], the target named is full-length RORγt in Jurkat cells (Homo sapiens (Human), UniProt P51449). As to the kind of experiment: RORγt 5×RORE Assay in Jurkat Cells (Assay 2). The test is classed as cell-based. The following applies: RORγt 5×RORE Nanoluc reporter.
For test [2], the target named is recombinant RORγ Ligand Binding Domain (LBD) protein (Homo sapiens (Human), UniProt P51449). As to the kind of experiment: Radio-Ligand RORγ Binding Assay (Assay 1). The following applies: radio-ligand 25-hydroxy [26,27-3H]-cholesterol competition. The gist of the method: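 Cell-free competition with 25-hydroxy[26,27-³H]-cholesterol for the ligand site of 6×His-GST-tagged RORγ LBD; SPA read-out with poly-Lys YSi beads after shaking and incubation at rt. IC50 taken as the inflection point of a four-parameter fit of percent inhibition vs concentration.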
Sequence of recombinant RORγ Ligand Binding Domain (LBD) protein (P51449 269-508): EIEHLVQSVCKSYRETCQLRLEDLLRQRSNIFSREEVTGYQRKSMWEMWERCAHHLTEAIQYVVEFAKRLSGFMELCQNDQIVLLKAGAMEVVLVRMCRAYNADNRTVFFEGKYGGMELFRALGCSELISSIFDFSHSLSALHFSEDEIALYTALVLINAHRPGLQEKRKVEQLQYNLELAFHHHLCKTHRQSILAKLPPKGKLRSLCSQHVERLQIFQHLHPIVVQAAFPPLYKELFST

Sequence of full-length RORγt in Jurkat cells (P51449 other isoform, or with tags, fused parts or gaps): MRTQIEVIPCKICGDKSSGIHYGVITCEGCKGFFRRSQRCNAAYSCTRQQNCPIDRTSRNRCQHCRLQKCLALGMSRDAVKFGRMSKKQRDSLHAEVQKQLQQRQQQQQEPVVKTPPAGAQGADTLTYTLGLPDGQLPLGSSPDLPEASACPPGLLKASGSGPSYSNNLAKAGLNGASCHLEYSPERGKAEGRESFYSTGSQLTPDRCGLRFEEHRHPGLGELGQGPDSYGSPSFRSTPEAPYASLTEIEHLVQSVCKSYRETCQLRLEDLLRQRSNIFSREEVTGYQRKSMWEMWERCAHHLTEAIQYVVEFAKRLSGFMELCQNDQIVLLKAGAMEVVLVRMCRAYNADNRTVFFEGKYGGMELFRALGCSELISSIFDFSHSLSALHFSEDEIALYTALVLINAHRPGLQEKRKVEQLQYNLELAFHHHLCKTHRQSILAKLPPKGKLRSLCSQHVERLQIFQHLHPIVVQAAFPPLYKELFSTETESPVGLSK

As for `CCn1c(O[C@H]2CC[C@H](C(F)(F)F)CC2)nc2cc(C(=O)NCc3ccc(S(=O)(=O)CC)cc3)ccc21` [BE-2, 1-ethyl-N-(4-(ethylsulfonyl)benzyl)-2-(((1r,4r)-4-(trifluoromethyl)cyclohexyl)oxy)-1H-benzo[d]imidazole-5-carboxamide], in test [1], the IC50 (usually the concentration that inhibits the measured activity by half) was less than 100 nM. Moreover, the Ki (commonly a measure of affinity in units of concentration, obtained from inhibition or displacement) in test [2] was less than 100 nM.
Turning to `CCS(=O)(=O)c1ccc([C@H](CO)NC(=O)c2ccc3c(c2)nc(O[C@H]2CC[C@H](C(F)(F)F)CC2)n3C2CC2)cc1` [BE-1, 1-cyclopropyl-N-((R)-1-(4-(ethylsulfonyl)phenyl)-2-hydroxyethyl)-2-(((1r,4R)-4-(trifluoromethyl)cyclohexyl)oxy)-1H-benzo[d]imidazole-5-carboxamide], the half-inhibitory concentration (IC50) in test [1] was less than 100 nM. Also, in test [2], the Ki is less than 100 nM.
Regarding `CCS(=O)(=O)c1ccc(CNC(=O)c2ccc3c(c2)nc(C[C@H]2CC[C@@H](C(F)(F)F)CC2)n3CC(C)C)nc1` [BE-26.2, N-((5-(ethylsulfonyl)pyridin-2-yl)methyl)-1-isobutyl-2-(((1s,4s)-4-(trifluoromethyl)cyclohexyl)methyl)-1H-benzo[d]imidazole-5-carboxamide], in test [1], the IC50 is more than 1000 nM. The inhibitory constant (Ki) in test [2] was less than 100 nM.
The molecule `CCn1c(Oc2ccc(C(F)(F)F)cc2)nc2cc(C(=O)NCc3ccc(S(=O)(=O)CC)cc3)ccc21` [BE-5, 1-ethyl-N-(4-(ethylsulfonyl)benzyl)-2-(4-(trifluoromethyl)phenoxy)-1H-benzo[d]imidazole-5-carboxamide] displayed an IC50 in test [1] of less than 100 nM. Also, the Ki in test [2] is less than 100 nM.
In test [1], `CCn1c(OCC2CC2)nc2cc(C(=O)N[C@@H](CO)c3ccc(S(=O)(=O)CC)cc3)ccc21` [BE-17, (R)-2-(cyclopropylmethoxy)-1-ethyl-N-(1-(4-(ethylsulfonyl)phenyl)-2-hydroxyethyl)-1H-benzo[d]imidazole-5-carboxamide] registered a half-maximal inhibitory concentration (IC50) of more than 1000 nM. Further, in test [2], the Ki is less than 100 nM.
For `CCn1c(Oc2ccc(C(F)(F)F)cc2)nc2cc(C(=O)N[C@@H](CN)c3ccc(S(=O)(=O)CC)cc3)ccc21` [BE-11, (R)-N-(2-amino-1-(4-(ethylsulfonyl)phenyl)ethyl)-1-ethyl-2-(4-(trifluoromethyl)phenoxy)-1H-benzo[d]imidazole-5-carboxamide], in that order: less than 100 nM and less than 100 nM.
In turn, `CCS(=O)(=O)c1ccc([C@H](CO)NC(=O)c2ccc3c(c2)nc(CO[C@H]2CC[C@H](C(F)(F)F)CC2)n3C2CC2)cc1` (single isomer, unassigned) [BE-71.2] yielded an IC50 in test [1] of less than 100 nM. Besides, in test [2], the Ki was less than 100 nM.
Take `CCS(=O)(=O)c1ccc(CNC(=O)c2ccc3c(c2)cc(CN2CCC(C(F)(F)F)CC2)n3C2CC2)cc1` [IN-12, 1-cyclopropyl-N-(4-(ethylsulfonyl)benzyl)-2-((4-(trifluoromethyl)piperidin-1-yl)methyl)-1H-indole-5-carboxamide]: the half-maximal inhibitory concentration (IC50) in test [1] is less than 100 nM. Also, the Ki in test [2] was less than 100 nM.
Take `CCn1c(C(=O)c2ccc(C(F)(F)F)cn2)cc2cc(C(=O)N[C@@H](CO)c3ccc(S(=O)(=O)CC)cc3)ccc21` [IN-22, (R)-1-ethyl-N-(1-(4-(ethylsulfonyl)phenyl)-2-hydroxyethyl)-2-(5-(trifluoromethyl)picolinoyl)-1H-indole-5-carboxamide]: the IC50 in test [1] is less than 100 nM. The Ki in test [2] is less than 100 nM.
In test [1], `CCS(=O)(=O)c1ccc(CNC(=O)c2cnc3c(c2)nc(Cc2ccc(C(F)(F)F)cc2)n3C2CC2)cc1` [AB-3, 3-cyclopropyl-N-(4-(ethylsulfonyl)benzyl)-2-(4-(trifluoromethyl)benzyl)-3H-imidazo[4,5-b]pyridine-6-carboxamide] came in with an IC50 of less than 100 nM. Further, the Ki in test [2] was less than 100 nM.
With `CCS(=O)(=O)c1ccc(CNC(=O)c2ccc3c(c2)nc(C(=O)c2ccc(C(F)(F)F)cc2)n3C2CC2)cc1` [BE-65, 1-cyclopropyl-N-(4-(ethylsulfonyl)benzyl)-2-(4-(trifluoromethyl)benzoyl)-1H-benzo[d]imidazole-5-carboxamide], the IC50 in test [1] was less than 100 nM. Further, the Ki in test [2] is less than 100 nM.
As for `CCS(=O)(=O)c1ccc(CNC(=O)c2cnc3c(c2)cc(C[C@H]2CC[C@H](C(F)(F)F)CC2)n3C2CC2)cc1` [AI-1, 1-cyclopropyl-N-(4-(ethylsulfonyl)benzyl)-2-(((1r,4r)-4-(trifluoromethyl)cyclohexyl)methyl)-1H-pyrrolo[2,3-b]pyridine-5-carboxamide], in test [1], the half-maximal inhibitory concentration (IC50) was less than 100 nM. The Ki in test [2] was less than 100 nM.
For `CCS(=O)(=O)c1ccc(CNC(=O)c2ccc3c(c2)nc(O[C@H]2CC[C@H](C(F)(F)F)CC2)n3CC(C)C)cc1` [BE-4.1, N-(4-(ethylsulfonyl)benzyl)-1-isobutyl-2-(((1r,4r)-4-(trifluoromethyl)cyclohexyl)oxy)-1H-benzo[d]imidazole-5-carboxamide], the IC50 in test [1] lay in the range of 100 to 1000 nM. Also, in test [2], the Ki is less than 100 nM.
In test [1], `CCS(=O)(=O)c1ccc(CNC(=O)c2ccc3c(c2)nc(C[C@H]2CC[C@H](C(F)(F)F)CC2)n3C2CC2)cc1` [BE-18.1, 1-cyclopropyl-N-(4-(ethylsulfonyl)benzyl)-2-((trans-4-(trifluoromethyl)cyclohexyl)methyl)-1H-benzo[d]imidazole-5-carboxamide] came in with an IC50 of less than 100 nM. Further, the Ki in test [2] is less than 100 nM.
As for `CCS(=O)(=O)c1ccc(CNC(=O)c2ccc3c(c2)nc(C[C@H]2CC[C@@H](C(F)(F)F)CC2)n3CC(C)C)cc1` [BE-19.2, N-(4-(ethylsulfonyl)benzyl)-1-isobutyl-2-(((1s,4s)-4-(trifluoromethyl)cyclohexyl)methyl)-1H-benzo[d]imidazole-5-carboxamide], the IC50 in test [1] was more than 1000 nM. In test [2], the Ki is less than 100 nM.
In the same order, the values of `CCS(=O)(=O)c1ccc([C@H](CO)NC(=O)c2ccc3c(c2)cc(CN2CCC(C(F)(F)F)CC2)n3C2CC2)cc1` [IN-13, (R)-1-cyclopropyl-N-(1-(4-(ethylsulfonyl)phenyl)-2-hydroxyethyl)-2-((4-(trifluoromethyl)piperidin-1-yl)methyl)-1H-indole-5-carboxamide] are less than 100 nM and less than 100 nM.
For `CCn1c(Cc2ccc(C(F)(F)F)cc2)cc2cc(C(=O)NCc3ccc(S(=O)(=O)CC)cn3)ccc21` [IN-2, 1-ethyl-N-((5-(ethylsulfonyl)pyridin-2-yl)methyl)-2-(4-(trifluoromethyl)benzyl)-1H-indole-5-carboxamide], in that order: less than 100 nM and less than 100 nM.
Consider `CCn1c(C[C@H]2CC[C@H](C(F)(F)F)CC2)cc2cc(C(=O)NCc3ccc(S(=O)(=O)CC)cn3)ccc21` [IN-15.1, 1-ethyl-N-((5-(ethylsulfonyl)pyridin-2-yl)methyl)-2-(((1r,4r)-4-(trifluoromethyl)cyclohexyl)methyl)-1H-indole-5-carboxamide], for which, in test [1], the IC50 is less than 100 nM. Also, the Ki in test [2] was less than 100 nM.
Turning to `CCn1c(Cc2ccc3c(c2)OC(F)(F)O3)cc2cc(C(=O)N[C@@H](CO)c3ccc(S(=O)(=O)CC)cn3)ccc21` [IN-5, (R)-2-((2,2-difluorobenzo[d][1,3]dioxol-5-yl)methyl)-1-ethyl-N-(1-(5-(ethylsulfonyl)pyridin-2-yl)-2-hydroxyethyl)-1H-indole-5-carboxamide], the half-inhibitory concentration (IC50) in test [1] is less than 100 nM. Further, the Ki in test [2] is less than 100 nM.
In test [1], `CCS(=O)(=O)c1ccc(CNC(=O)c2ccc3c(c2)cc(Cc2ccc(C(F)(F)F)cc2)n3C2CC2)cc1` [IN-18, 1-cyclopropyl-N-(4-(ethylsulfonyl)benzyl)-2-(4-(trifluoromethyl)benzyl)-1H-indole-5-carboxamide] came in with an IC50 of less than 100 nM. Moreover, the Ki in test [2] is less than 100 nM.
`CCn1c(Cc2ccc(C(F)(F)F)cn2)cc2cc(C(=O)N[C@@H](CO)c3ccc(S(=O)(=O)CC)cc3)ccc21` [IN-9, (R)-1-ethyl-N-(1-(4-(ethylsulfonyl)phenyl)-2-hydroxyethyl)-2-((5-(trifluoromethyl)pyridin-2-yl)methyl)-1H-indole-5-carboxamide] yielded an IC50 in test [1] of less than 100 nM. For the same molecule, the inhibition constant (Ki) in test [2] is less than 100 nM.
In turn, `CNS(=O)(=O)c1ccc(CNC(=O)c2ccc3c(c2)nc(C[C@H]2CC[C@H](C(F)(F)F)CC2)n3C2CC2)cc1` [BE-33, 1-cyclopropyl-N-(4-(N-methylsulfamoyl)benzyl)-2-(((1r,4r)-4-(trifluoromethyl)cyclohexyl)methyl)-1H-benzo[d]imidazole-5-carboxamide] came in with an IC50 in test [1] of less than 100 nM. Further, the Ki in test [2] is less than 100 nM.
`CCS(=O)(=O)c1ccc(CNC(=O)c2ccc3c(c2)nc(C[C@H]2CC[C@@H](C(F)(F)F)CC2)n3C2CC2)nc1` [BE-27.2, 1-cyclopropyl-N-((5-(ethylsulfonyl)pyridin-2-yl)methyl)-2-(((1s,4s)-4-(trifluoromethyl)cyclohexyl)methyl)-1H-benzo[d]imidazole-5-carboxamide] displayed an IC50 in test [1] of more than 1000 nM. Moreover, in test [2], the Ki was less than 100 nM.

These data come from patent US10301261B2, “Substituted indoles as modulators of ROR-gamma” (Vitae Pharmaceuticals, LLC, priority 2015, dated 2019).
